“And” between values parts separate entries of the source, which are not always exact repeats. Equal entries are not always repeated.

What is called melting point is the temperature, or range, at which the solid turns liquid. The compound `N#Cc1cc(-c2ccccc2)cnc1Cl` [2-chloro-3-cyano-5-phenylpyridine] came in with a melting point of 145 °C.
`Cc1cc(O)c(C(C)C)cc1Cl` [4-chloro-2-isopropyl-5-methylphenol] came in with a melting point of 60 °C.
Take `ON=C1CCCCC1` [cyclohexanone oxime]: the melting point stood at 89 °C.
The compound `CC(C)c1ccccc1O` [2-isopropylphenol] returned a melting point of 16 °C.
Turning to `CCN1CCNC(=O)C1=O` [1-ethylpiperazine-2,3-dione], the melting point turned out to be 110 °C.
Regarding `Cc1cccc(Nc2ccncc2S(=O)(=O)NC(=O)NC(C)C)c1` [Torasemide], the melting point amounted to 164 °C.
On to `Oc1cccc(I)c1` [3-iodophenol], for which the melting point stood at 41 °C.
For `O=[N+]([O-])/C=C/c1cccc([N+](=O)[O-])c1` [beta,3-dinitrostyrene], the melting point came out at 126 °C.
Regarding `C=COCC` [ethyl vinyl ether], the melting point was -115 °C.
`COc1cc(OC)c(OC)cc1C=O` [2,4,5-trimethoxybenzaldehyde]: the melting point turned out to be 114 °C.
`Oc1ccc(Nc2ccccc2)cc1` [4-hydroxydiphenylamine]: the melting point came out at 69 °C.
Compound `CCOC(=O)N1c2ccccc2C=CC1OCC` (centres undefined) [2-ethoxy-1-ethoxycarbonyl-1,2-dihydroquinoline] showed a melting point of 65 °C.
`CC(C)N(C=O)C(C)C` [N,N-diisopropylformamide] gave a melting point of 10 °C.
In the case of `O=C1C(c2ccccc2)=C(c2ccccc2)C(c2ccccc2)=C1c1ccccc1` [tetraphenylcyclopentadienone] it was 218 °C; in that of `C=CCCCCCCCCCCCC` [Tetradec-1-ene], -13 °C; in that of `CS(=O)(=O)OS(C)(=O)=O` [methanesulfonic anhydride], 67 °C.
In turn, `COc1ccc2[nH]c([S+]([O-])Cc3ncc(C)c(OC)c3C)nc2c1` (centres undefined) [Omeprazole] yielded a melting point of 156 °C.
Compound `Clc1cccc2c1=NC(c1ccccc1)C=2c1ccccc1` (centres undefined) [7-chloro-2,3-diphenyl-1H-indole] had a melting point of 98 °C.
With `COC(=O)CC(=O)OC` [dimethyl malonate], the melting point is -62 °C.
Regarding `CCCCNC(=O)NS(=O)(=O)c1ccc(C)cc1` [tolbutamide], the melting point turned out to be 129 °C.
Turning to `O=C(/C=C/c1ccc2ccccc2c1)/C=C/c1ccc2ccccc2c1` [(1E,4E)-1,5-Di(2-naphthyl)-1,4-pentadien-3-one], the melting point is 244 °C and 245 °C.
In the case of `Cc1cc(/C=C2\S/C(=N\c3ccccc3)N(c3ccccc3)C2=O)c(C)n1-c1ccc(C(F)(F)F)cc1` [OSM-S-52] it was 226 °C.
`Nc1cccc(CO)c1` [m-amino_benzyl_alcohol] returned a melting point of 95 °C.
For `C1CCCCCCCCCCC1` [Cyclododecane], the melting point was 61 °C.
Compound `CC(=O)O[Si](C)(OC(C)=O)OC(C)=O` [triacetoxy(methyl)silane] gave a melting point of 43 °C.
As to `O=C1O[C@H]([C@@H](O)CO)C(O)=C1O` [Vitamin C], the melting point turned out to be 191 °C.
In the case of `CC1(C)CC(=O)c2c(cc3c(c2-c2ccccc2)-c2ccccc2OC3)C1` it was 191 °C; in that of `Cc1cc(O)ccc1F` [4-fluoro-3-methylphenol], 30 °C.
`CC(C)(C)c1cc(C(C)(C)C)cc(C(C)(C)C)c1` [1,3,5-tri-tert-butylbenzene] showed a melting point of 71 °C.
`O=C1C=C(Cl)C(=O)C=C1Cl` [2,5-Dichloro-1,4-benzoquinone] yielded a melting point of 162 °C.
Consider `O=Cc1ccc(C(F)(F)F)cc1` [4-(trifluoromethyl)benzaldehyde], for which the melting point is 2 °C.
In turn, `O=C(Nc1ccccc1)OC1C=CC=CCC1OC(=O)Nc1ccccc1` (centres undefined) [cyclohepta-3,5-diene-1,2-diyl bis(phenylcarbamate)] displayed a melting point of 135 °C.
`CCC1(CC)C(=O)CCNC1=O` [piperidione] registered a melting point of 102 °C.
With `O=C(C1CCCCC1)N1CC(=O)N2CCc3ccccc3C2C1` (centres undefined) [praziquantel] the figure was 136 °C; with `OC[C@@H](O)COCc1ccccc1` [(2R)-3-(Benzyloxy)propane-1,2-diol], 27.5 °C.
Compound `CC(C)(C)N1CCNC1=O` [1-tert-butyl-2-imidazolidinone] had a melting point of 137 °C.
`OB(O)c1ccccc1O` [2-hydroxybenzeneboronic acid] displayed a melting point of 185 °C.
In the case of `O=C(O)/C(=C/c1ccc([N+](=O)[O-])cc1)c1ccc(F)cc1` [(E)-2-(4-Fluorophenyl)-3-(4-nitrophenyl)propenoic acid] it was 242 °C.
In the case of `CC(=O)Oc1ccc([N+](=O)[O-])cc1` [4-nitrophenyl acetate] it was 78 °C.
In the case of `Cc1nc(-c2cccnc2)sc1C(=O)O` [4-methyl-2-(3-pyridyl)thiazole-5-carboxylic acid] it was 246 °C; in that of `Fc1ccccc1F` [1,2-difluorobenzene], -34 °C.
Regarding `O=Cc1ccc(-c2ccccc2)cc1` [p-phenylbenzaldehyde], the melting point was found to be 60 °C.
The compound `CC(C)(C)OC(=O)N[C@@H](Cc1ccccc1)C(=O)O` [boc-phenylalanine] returned a melting point of 87 °C.
In the case of `CCc1ccc(-c2ccccc2)cc1` [1-ethyl-4-phenylbenzene] it was 47 °C; in that of `CCCCCCCCCCCCCCCCC1CO1` (centres undefined) [2-Hexadecyloxirane], 26 °C; in that of `C/C=C/C1Nn2c(nnc2-c2ccc(OC)cc2)S1` (centres undefined), 81 °C.
For `Cc1cncc(C)n1` [2,6-dimethylpyrazine], the melting point worked out at 41 °C.
For `Cc1ccc(O)c2c1CCC2` [7-methyl-4-indanol], the melting point came to 81 °C.
Compound `C` [Methane] showed a melting point of -182 °C.
`C[SiH](C)O[Si](O[SiH](C)C)(O[SiH](C)C)O[SiH](C)C` [tetrakis(dimethylsiloxy)silane] yielded a melting point of -60 °C.
`OC[C@H]1O[C@@H]2O[C@H]3[C@H](O)[C@@H](O)[C@@H](O[C@H]4[C@H](O)[C@@H](O)[C@@H](O[C@H]5[C@H](O)[C@@H](O)[C@@H](O[C@H]6[C@H](O)[C@@H](O)[C@@H](O[C@H]7[C@H](O)[C@@H](O)[C@@H](O[C@H]8[C@H](O)[C@@H](O)[C@@H](O[C@H]1[C@H](O)[C@H]2O)O[C@@H]8CO)O[C@@H]7CO)O[C@@H]6CO)O[C@@H]5CO)O[C@@H]4CO)O[C@@H]3CO` returned a melting point of 290 °C.
In the case of `O=C(CCC(=O)Oc1ccccc1)Oc1ccccc1` [diphenyl succinate] it was 88 °C.
On to `CC(=O)Nc1ccc(C2=NN(c3ccccc3)C(=O)C2)cc1`, for which the melting point came out at 210 °C.
Consider `OCc1ccccc1O` [2-hydroxybenzyl alcohol], for which the melting point turned out to be 85 °C.
`CN[C@@H](C)[C@H](O)c1ccccc1` [Ephedrine] had a melting point of 34 °C.
In the case of `CC(=O)C1=C2C=CCC=C2N=C1` [3-Acetylindole], the melting point is 194 °C.
In the case of `O=C(O)c1cc(I)cc(I)c1I` [2,3,5-triiodobenzoic acid], the melting point worked out at 221 °C.
On to `CCCC1(O)CCC2C3CCC4CC(OC(C)=O)CCC4(C)C3CCC21C` (centres undefined), for which the melting point was 121 °C.
`O=[N+]([O-])c1cc(I)c(O)c(I)c1` [2,6-Diiodo-4-nitrophenol] had a melting point of 157 °C.
On to `c1ccc2cc3ccccc3cc2c1` [Anthracene], for which the melting point came out at 216 °C.
With `O=C(NC1CCCCC1)c1ccccc1` [N-cyclohexylbenzamide] the figure was 162 °C; with `ClC1=C(Cl)C2(Cl)C3C4CC(C5OC45)C3C1(Cl)C2(Cl)Cl` (centres undefined) [Dieldrin], 175 °C; with `O=C(O)c1cc(O)ccc1O` [2,5-Dihydroxybenzoic acid], 206 °C.
As for `O=C1CC(=O)c2ccccc21` [1,3-indanedione], the melting point stood at 130 °C.
`CCCCc1ccc(/N=N/c2ccc(OCCC)cc2)cc1` [(E)-1-(4-butylphenyl)-2-(4-propoxyphenyl)diazene] showed a melting point of 67 °C.
With `O=Cc1csnn1` [1,2,3-thiadiazole-4-carboxaldehyde], the melting point amounted to 85 °C.
In the case of `CC1(C(=O)OC2OC(CO)C(O)C(O)C2O)CCCC2(C)C3CCC4CC3(CCC12)CC4(CO)OC1OC(CO)C(O)C(O)C1O` (centres undefined), the melting point is 198 °C.
In the case of `CC(C)(Oc1ccc(CCNC(=O)c2ccc(Cl)cc2)cc1)C(=O)O` [bezafibrate] it was 186 °C.
With `N#CCc1cccc2ccccc12` [1-naphthylacetonitrile] the figure was 34 °C; with `CON(/C=C1\C(=O)C2(C)CCC1C2(C)C)c1ccccc1` (centres undefined), 76 °C; with `C=C[C@H]1C[N@@]2CC[C@H]1C[C@H]2[C@H](O)c1ccnc2ccccc12` [(8alpha,9R)-Cinchonan-9-ol], 200 °C.
As to `O=C(Nc1ccccc1)OC1CCCCCC1OC(=O)Nc1ccccc1` (centres undefined) [cycloheptane-1,2-diyl bis(phenylcarbamate)], the melting point is 174 °C.
With `C1=C\CCCC\C=C/1` [(1Z,3Z)-Cycloocta-1,3-diene] the figure was -53 °C; with `ClC(Cl)=C(Cl)C(Cl)=C(Cl)Cl` [hexachloro-1,3-butadiene], -21 °C; with `CCCCOc1ccc(CC(=O)NO)cc1` [bufexamac], 153 °C.
On to `C=C1CCC2CC1C2(C)C` (centres undefined) [b-pinene], for which the melting point is -61 °C.
Regarding `Brc1cc(Br)cc(Br)c1` [1,3,5-Tribromobenzene], the melting point was 122 °C.
The compound `O=c1c2ccccc2oc2ccccc12` [xanthone] displayed a melting point of 176 °C.
As to `Oc1cccc(F)c1` [3-fluorophenol], the melting point came out at 12 °C.
Turning to `c1ccc(-c2c3ccccc3c(-c3ccccc3)c3ccccc23)cc1` [9,10-diphenylanthracene], the melting point turned out to be 251 °C.
As to `O=C(O)c1ccc(F)c(F)c1` [3,4-difluorobenzoic acid], the melting point turned out to be 123 °C.
In the case of `O=S(=O)(O)c1ccccc1` [benzenesulfonic acid], the melting point came to 48 °C.
In the case of `Cc1cc(C=O)c(C)n1-c1cc(C(F)(F)F)cc(C(F)(F)F)c1` [OSM-S-36] it was 95.5 °C; in that of `Cc1ccc(C)c(/C=C/C(=O)O)c1` [2,5-dimethylcinnamic acid], 130 °C.

Source of the values: the Bradley open melting point set (2014).
